Like-named read-outs stand apart in the source and are kept apart here.

For test [1], the system named is Trypanosoma brucei brucei strain 427–221. Kind of test: Trypanosome screening assay (CellTiter-Glo ATP bioluminescence, 48 h). The test is classed as cell-based. The note with it: for IC50: Trypanosoma brucei. How it is done: Trypanosoma brucei brucei strain 427–221 were grown at 37°C, 5% CO2 in HMI-9 medium containing 10% Fetal Bovine Serum, 10% Serum Plus (JRH Inc., Lenexa, KS,USA) and penicillin/streptomycin.
T.b.b. 427–221 were diluted to 2.10^4 per ml in complete HMI-9 medium and aliquoted in Greiner sterile 384-well flat white opaque culture plates using a WellMate cell dispenser from Matrix Tech. (Hudson, NH, USA). Test compounds were serially diluted in dimethyl sulfoxide (DMSO) and added to the assay plates with the robotic dispenser Biomek FXp liquid handler (Beckman Coulter). Thimerosal (2 µM final concentration) was added as a positive control and DMSO as a negative control (1% final concentration). Trypanosomes were incubated with compounds for 48 hours at 37°C with 5% CO2 before monitoring cell viability as previously described. Briefly, trypanosomes were lysed in the wells by adding 25 µL of CellTiter-GloTM (Promega). The lysed trypanosomes were placed on an orbital shaker at room temperature for 2 minutes. After lysis, the resulting ATP-bioluminescence was measured at room temperature using an Analyst HT plate reader (Molecular Devices). Percentage inhibition of parasite growth was calculated for each well as [1−(RLUx−RLU+)/(RLU−−RLU+)]*100 where RLUx, RLU+ and RLU− are respectively the Relative Light Units for each well, positive (thimerosal) and negative (DMSO) controls. A screening window coefficient, denoted Z′ factor, was used to evaluate the performance of the assay. The Z′ factor, calculated as 1−(3σc++3σc−)/(μc+−μc−) where σc+, σc−, μc+ and μc− are respectively the standard deviation and mean values of positive and negative controls, is reflective of the assay signal dynamic range and the data variation associated with signal measurement. IC50's were calculated using Prism (GraphPad).

Test [2] concerns HeLa cells. Kind of test: HeLa toxicity screening assay (nuclei count by imaging, 17 h). The test is classed as cell-based, human. The following applies: Homo sapiens, HeLa; Figure 4. The method, then:
(§1) HeLa cells were plated at a density of 2,000 cells per well into two 384 well clear bottom plates (Costar 3712) in DMEM with 10% FBS. After 24 hours incubation at 37°C with 5% CO2 the cells were pinned with 200 nL of a two-fold serial dilution of merulin analogues. After 17 hours of treatment at 37°C in 5% CO2 the plates were fixed with 4% formaldehyde and washed with PBS (BioTek ELx405). After 10 minutes in PBS with 0.5% TritonX-100 each plate was washed and blocked with 2% Bovine Serum Albumin in PBS. Nuclei were stained with Hoechst 33342 then washed and placed in 40 µL of PBS with 0.1% sodium azide. Plates were imaged using the ImageXpress Micro epifluorescent scope (Molecular Devices). MetaXpress software was used to quantify total number of cells and IC50s were calculated using Prism (GraphPad).

Test [3] relates to T98-G cells. Kind of test: Glioblastoma toxicity screening assay (nuclei count by imaging, 17 h). The following applies: Homo sapiens, T98G; Figure 4. The format is cell-based. The method, then: as §1, with “T98-G cells (ATTC” for “HeLa cells were”, “T98-G cells (ATTC number: CRL-1690) were plated” for “HeLa cells were plated”
The mark [4] stands for this setting: Figure 4, bloodstream form, read-out: T.b.b IC50.
[5] abbreviates: text and Figures 1, 3, bloodstream form, read-out: IC50 against T. brucei brucei.

In general, IC50 refers to the midpoint of a concentration-inhibition curve. In the case of `N=C(N)c1ccc(OCCCCCOc2ccc(C(=N)N)cc2)cc1` [Pentamidine, reference compound], the IC50 in test [1] (Table 3, read-out: T.b.b IC50) amounted to 0.03 µM.

With `CC1(C)CCC(=O)[C@@]2(C)OO[C@H]3C[C@@]12CC[C@H]3OC(=O)c1cc(Cl)sc1Cl` [compound 21, (3S,4R,6aS,10aS)-7,7,10a-trimethyl-10-oxooctahydro-3H-3,6a-methanobenzo[c][1,2]dioxocin-4-yl 2,5-dichlorothiophene-3-carboxylate], the IC50 in test [1] (setting [4]) was 0.54 µM; in test [2], 21 µM; in test [3] it was over 50 µM.

Consider `CC1(C)CCC(=O)[C@@]2(C)OO[C@H]3C[C@@]12CC[C@H]3OC(=O)Cc1cccc2ccccc12` [compound 17, (3S,4R,6aS,10aS)-7,7,10a-trimethyl-10-oxooctahydro-3H-3,6a-methanobenzo[c][1,2]dioxocin-4-yl 2-(naphthalen-1-yl)acetate], for which the IC50 is 0.043 µM in test [1] (bloodstream form, read-out: IC50 against T. brucei); 13 µM in test [2]; over 50 µM in test [3].

For `CC1(C)CCC(=O)[C@@]2(C)OO[C@H]3C[C@@]12CC[C@H]3OC(=O)c1cc(-c2ccccc2)no1` [compound 22, (3S,4R,6aS,10aS)-7,7,10a-trimethyl-10-oxooctahydro-3H-3,6a-methanobenzo[c][1,2]dioxocin-4-yl 3-phenylisoxazole-5-carboxylate], the figures for the IC50 in test [1] (setting [4]), in test [2] and in test [3] were 0.19 µM, over 50 µM and 20 µM, respectively.

Turning to `CC1(C)CCC(=O)[C@@]2(C)OO[C@H]3C[C@@]12CC[C@H]3OC(=O)c1cccc(-c2ccccc2)c1` [compound 15, (3S,4R,6aS,10aS)-7,7,10a-trimethyl-10-oxooctahydro-3H-3,6a-methanobenzo[c][1,2]dioxocin-4-yl [1,1′-biphenyl]-3-carboxylate], the concentration for half-maximal inhibition (IC50) in test [1] (setting [4]) was 0.24 µM; in test [2], over 50 µM; in test [3], over 50 µM.

Regarding `CC1(C)CCC(=O)[C@@]2(C)OO[C@H]3C[C@@]12CC[C@H]3OC(=O)CC1CCNCC1` [compound 28, (3S,4R,6aS,10aS)-7,7,10a-trimethyl-10-oxooctahydro-3H-3,6a-methanobenzo[c][1,2]dioxocin-4-yl 2-(piperidin-4-yl)acetate], the IC50 was 0.16 µM in test [1] (setting [4]), 21 µM in test [2] and over 50 µM in test [3].

For `NCCCC(N)(C(=O)O)C(F)F` (stereo not shown) [Eflornithine, reference compound], the concentration for half-maximal inhibition (IC50) in test [1] (Table 3, read-out: T.b.b IC50) is 59 µM.

Consider `CC1(C)CCC(=O)[C@@]2(C)OO[C@H]3C[C@@]12CC[C@H]3OC(=O)C1COc2ccccc2O1` (stereo partly drawn) [compound 12, (3S,4R,6aS,10aS)-7,7,10a-trimethyl-10-oxooctahydro-3H-3,6a-methanobenzo[c][1,2]dioxocin-4-yl 2,3-dihydrobenzo[b][1,4]dioxine-2-carboxylate], for which the IC50 in test [1] (Table 3, read-out: T.b.b IC50) was 0.06 µM; in test [2], over 50 µM; in test [3], over 50 µM.

In the case of `CC(=O)O[C@@H]1CC[C@@]23C[C@@H]1OO[C@]2(C)C(=O)CCC3(C)C` [compound 10, (3S,4R,6aS,10aS)-7,7,10a-trimethyl-10-oxooctahydro-3H-3,6a-methanobenzo[c][1,2]dioxocin-4-yl acetate], in test [1] (setting [5]), the IC50 was determined as 14 µM.

On to `CC1(C)C=CC(=O)[C@@]2(C)OO[C@@H]3C[C@]12CCC3(O)CO` (stereo partly shown) [Merulin C (7), Merulin C], for which, in test [1] (Table 3, read-out: T.b.b IC50), the IC50 was 0.8 µM.

Take `CC1(C)CCC(=O)[C@@]2(C)OO[C@H]3C[C@@]12CC[C@H]3OC(=O)c1ccsc1` [compound 20, (3S,4R,6aS,10aS)-7,7,10a-trimethyl-10-oxooctahydro-3H-3,6a-methanobenzo[c][1,2]dioxocin-4-yl thiophene-3-carboxylate]: the IC50 in test [1] (setting [4]) is 0.33 µM; in test [2], 16 µM; in test [3], over 50 µM.

On to `CC1(C)CC[C@@H](O)[C@@]2(C)OO[C@H]3C[C@@]12CC[C@H]3O` [compound 8, (3S,4R,6aS,10R,10aS)-7,7,10a-trimethyloctahydro-3H-3,6a-methanobenzo[c][1,2]dioxocine-4,10-diol], for which the IC50 in test [1] (setting [5]) is over 50 µM.

In the case of `Cc1ncc(C(=O)O[C@@H]2CC[C@@]34C[C@@H]2OO[C@]3(C)C(=O)CCC4(C)C)s1` [compound 18, (3S,4R,6aS,10aS)-7,7,10a-trimethyl-10-oxooctahydro-3H-3,6a-methanobenzo[c][1,2]dioxocin-4-yl 2-methylthiazole-5-carboxylate], the concentration for half-maximal inhibition (IC50) was 0.7 µM in test [1] (setting [4]), over 50 µM in test [2] and over 50 µM in test [3].

On to `CC1(C)CCC(=O)[C@@]2(C)OO[C@H]3C[C@@]12CC[C@H]3OC(=O)c1ccc(N2CCOCC2)cc1` [compound 24, (3S,4R,6aS,10aS)-7,7,10a-trimethyl-10-oxooctahydro-3H-3,6a-methanobenzo[c][1,2]dioxocin-4-yl 4-morpholinobenzoate], for which the IC50 in test [1] (setting [4]) was 0.27 µM; in test [2] it was 12 µM; in test [3] it was over 50 µM.

As for `CC1(C)CCC(=O)[C@@]2(C)OO[C@H]3C[C@@]12CC[C@H]3OC(=O)c1ccno1` [compound 23, (3S,4R,6aS,10aS)-7,7,10a-trimethyl-10-oxooctahydro-3H-3,6a-methanobenzo[c][1,2]dioxocin-4-yl isoxazole-5-carboxylate], the values for the 50% inhibitory concentration (IC50) in test [1] (setting [4]), in test [2] and in test [3] were 1.8 µM, over 50 µM and over 50 µM, respectively.

In the case of `CC1(C)CCC(=O)[C@@]2(C)OO[C@H]3C[C@@]12CC[C@H]3OC(=O)c1ccc(C2CCCCC2)cc1` [compound 16, (3S,4R,6aS,10aS)-7,7,10a-trimethyl-10-oxooctahydro-3H-3,6a-methanobenzo[c][1,2]dioxocin-4-yl 4-cyclohexylbenzoate], the values for the IC50 in test [1] (setting [4]), in test [2] and in test [3] were 0.11 µM, 13 µM and over 50 µM, respectively.

`CC1(C)CCC(=O)[C@@]2(C)OO[C@H]3C[C@@]12CC[C@H]3OC(=O)c1ccc(N2CCCCC2)nc1` [compound 26, (3S,4R,6aS,10aS)-7,7,10a-trimethyl-10-oxooctahydro-3H-3,6a-methanobenzo[c][1,2]dioxocin-4-yl 6-(piperidin-1-yl)nicotinate]: the IC50 in test [1] (setting [4]) was found to be 0.21 µM; in test [2] it was 24 µM; in test [3], 15 µM.

On to `CC1(C)CCC(=O)[C@@]2(C)OO[C@H]3C[C@@]12CC[C@H]3OC(=O)c1cnc(Br)s1` [compound 19, (3S,4R,6aS,10aS)-7,7,10a-trimethyl-10-oxooctahydro-3H-3,6a-methanobenzo[c][1,2]dioxocin-4-yl 2-bromothiazole-5-carboxylate], for which the values for the IC50 in test [1] (setting [4]), in test [2] and in test [3] were 0.66 µM, 13 µM and over 50 µM, respectively.

On to `CC1(C)CCC(=O)C2(C)OOC3CC12CCC3(O)CO` (stereo not shown) [Merulin B (6), Merulin B], for which, in test [1] (Table 3, read-out: T.b.b IC50), the IC50 stood at 8 µM.

Take `Cc1ccc(C(=O)Nc2ccc(S(=O)(=O)O)c3cc(S(=O)(=O)O)cc(S(=O)(=O)O)c23)cc1NC(=O)c1cccc(NC(=O)Nc2cccc(C(=O)Nc3cc(C(=O)Nc4ccc(S(=O)(=O)O)c5cc(S(=O)(=O)O)cc(S(=O)(=O)O)c45)ccc3C)c2)c1` [Suramin, reference compound]: the IC50 in test [1] (Table 3, read-out: T.b.b IC50) was 0.007 µM.

For the molecule `CC1(C)CCC(=O)[C@@](C)(O)[C@]12CC[C@@H](O)[C@@H](O)C2` [compound 9, (1S,6S,8S,9R)-1,8,9-trihydroxy-1,5,5-trimethylspiro[5.5]undecan-2-one], the IC50 in test [1] (setting [5]) was over 50 µM. Besides, in test [1] (initial SAR series), the “activity against T. brucei brucei in words” value is “complete loss of activity”.

For `CC(C)(C)C(=O)O[C@@H]1CC[C@@]23C[C@@H]1OO[C@]2(C)C(=O)CCC3(C)C` [compound 11, (3S,4R,6aS,10aS)-7,7,10a-trimethyl-10-oxooctahydro-3H-3,6a-methanobenzo[c][1,2]dioxocin-4-yl pivalate], the IC50 in test [1] (setting [5]) turned out to be 8 µM.

For the origin of these results see paper PMC3459870, “Hit-to-Lead Development of the Chamigrane Endoperoxide Merulin A for the Treatment of African Sleeping Sickness” (PLoS ONE, 2012).
